{
  "source": "patent US20240307500A1",
  "about": "“SUSTAINED RELEASE FORMULATION COMPOSITION COMPRISING SEMAGLUTIDE OR PHARMACEUTICALLY ACCEPTABLE SALT THEREOF” (PEPTRON, INC., priority 2021, published 2024)",
  "test_system": "SD rats",
  "experiment": "Oral glucose tolerance test (OGTT), hypoglycemic effects after single SC injection",
  "assay_type": "in vivo",
  "details": "single SC 0.123 mpk semaglutide",
  "protocol": "An oral glucose tolerance test (OGTT) was performed to confirm hypoglycemic effects of the sustained-release microspheres including semaglutide of the present invention. First, the experiment was conducted by dividing 8-week-old SD rats (18 rats; 6 rats in each group) into 3 groups. It was divided into a negative control group (Control), a positive control group (API) and Example 3 formulation administration group (PT403)), wherein the positive control group (API) was subcutaneously injected once with 0.123 mpk of semaglutide, and the Example 3 formulation administration group (PT403) was injected with the Example 3 formulation subcutaneously with 4 mpk.\nAfter drug administration, total 5 OGTTs (Days 1, 7, 16, 21 and 28) were performed, and 2 g/kg of glucose was orally administered to SD rats fasted for 18 hours. Immediately after glucose administration, and after 15, 30, 60, 90, 120, and 180 minutes, blood was collected from the tail to measure blood glucose.",
  "data": [
    {"substance": "N^6,26-{18-[N-(17-carboxyheptadecanoyl)-L-γ-glutamyl]-10-oxo-3, 6, 12, 15-tetraoxa-9, 18-diazaoctadecanoyl}-[8-(2-amino-2-propanoic acid), 34-L-arginine] human glucan-like peptide 1 (7-37) [API]", "values": [
      {"measurement": "hypoglycemic effects (in words)", "result": "returned to normal on the 7th day"}
    ]}
  ]
}
